Source: patent US10556907B2 (AbbVie Inc., priority 2015, dated 2020)
Where a name gives a salt, the structure may show the parent alone.

Columns and labels:
Test in all cases: Method 1: intracellular Ca2+ release (FLIPR, Calcium 5) in recombinant CHO-K1 cells
Type in all cases: cell-based
[1] = biological target: T1, human S1PR5 receptor (Homo sapiens, UniProt Q9H228); conditions: agonist potency, determined with method 1 (symbols A-D); read-out: S1P5 EC50 range
T1 construct: host or cells: CHO-K1
T1 sequence (Q9H228 whole entry): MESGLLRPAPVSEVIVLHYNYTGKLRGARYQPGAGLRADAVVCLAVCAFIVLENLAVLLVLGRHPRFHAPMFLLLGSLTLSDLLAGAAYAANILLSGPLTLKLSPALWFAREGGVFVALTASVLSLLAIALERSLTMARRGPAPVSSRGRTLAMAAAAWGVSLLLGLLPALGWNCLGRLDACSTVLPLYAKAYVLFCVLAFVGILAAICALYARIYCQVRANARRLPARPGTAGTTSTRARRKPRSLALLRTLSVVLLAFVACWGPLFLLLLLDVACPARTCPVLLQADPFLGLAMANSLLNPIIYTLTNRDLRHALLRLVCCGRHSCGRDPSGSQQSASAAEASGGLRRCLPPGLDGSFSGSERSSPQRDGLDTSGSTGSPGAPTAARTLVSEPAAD
Summary of the method: (§1)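 CHO-K1 cells co-expressing the receptor, aequorin and Gq/i5 were loaded with Calcium 5 dye for 1 h at 37 °C, adapted 45 min to RT, then given serially diluted compound in HBSS/20 mmol/L Hepes/2.5 mmol/L probenecid/0.1% BSA, pH 7.4. FLIPR fluorescence was read; EC50 came from nonlinear fits normalized to phospho-fingolimod.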

[2] = biological target: T2, human S1PR3 receptor (Homo sapiens, UniProt Q99500); conditions: (1): determined with method 1; read-out: S1P3 EC50
T2 construct: host or cells: CHO-K1
T2 sequence (Q99500 whole entry): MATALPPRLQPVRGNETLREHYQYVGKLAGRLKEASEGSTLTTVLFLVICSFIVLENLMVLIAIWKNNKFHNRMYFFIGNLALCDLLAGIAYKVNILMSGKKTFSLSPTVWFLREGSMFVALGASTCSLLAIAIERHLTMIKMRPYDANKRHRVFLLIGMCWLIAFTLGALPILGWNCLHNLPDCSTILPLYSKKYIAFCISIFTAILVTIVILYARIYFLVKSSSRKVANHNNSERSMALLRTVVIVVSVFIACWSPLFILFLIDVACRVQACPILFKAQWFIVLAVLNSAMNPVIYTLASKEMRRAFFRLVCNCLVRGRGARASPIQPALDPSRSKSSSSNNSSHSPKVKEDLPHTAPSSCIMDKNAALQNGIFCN
Summary of the method: as §1

[3] = biological target: T3, human S1PR1 receptor (Homo sapiens, UniProt P21453); conditions: (1): determined with method 1; read-out: S1P1 EC50
T3 construct: host or cells: CHO-K1
T3 sequence (P21453 whole entry): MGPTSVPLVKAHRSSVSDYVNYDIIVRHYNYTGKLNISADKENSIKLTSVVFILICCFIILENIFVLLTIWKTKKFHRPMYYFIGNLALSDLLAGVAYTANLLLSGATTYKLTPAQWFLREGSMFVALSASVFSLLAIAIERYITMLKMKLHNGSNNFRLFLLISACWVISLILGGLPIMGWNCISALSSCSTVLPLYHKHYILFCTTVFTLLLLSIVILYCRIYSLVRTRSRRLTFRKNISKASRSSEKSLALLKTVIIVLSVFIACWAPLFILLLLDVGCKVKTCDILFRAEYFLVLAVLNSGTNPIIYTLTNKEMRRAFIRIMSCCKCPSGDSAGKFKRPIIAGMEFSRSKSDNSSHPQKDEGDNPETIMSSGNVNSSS
Summary of the method: as §1

[4] = biological target: T4, human S1PR4 receptor (Homo sapiens, UniProt O95977); conditions: (1): determined with method 1; read-out: S1P4 EC50
T4 construct: host or cells: CHO-K1
T4 sequence (O95977 1-384): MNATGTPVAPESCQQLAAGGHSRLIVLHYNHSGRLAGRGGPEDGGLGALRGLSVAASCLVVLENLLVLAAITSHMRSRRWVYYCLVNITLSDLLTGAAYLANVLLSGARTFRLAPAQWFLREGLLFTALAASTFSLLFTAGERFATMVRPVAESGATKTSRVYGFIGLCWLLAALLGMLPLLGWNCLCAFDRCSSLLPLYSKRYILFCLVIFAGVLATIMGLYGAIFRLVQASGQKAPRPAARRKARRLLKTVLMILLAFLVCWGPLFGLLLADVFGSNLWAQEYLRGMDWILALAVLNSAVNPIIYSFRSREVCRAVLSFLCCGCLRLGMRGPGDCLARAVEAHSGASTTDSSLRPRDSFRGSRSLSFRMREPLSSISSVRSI
Summary of the method: as §1

Row | Structure (SMILES) | EC50 [1] [nM] | EC50 [2] [nM] | EC50 [3] [nM] | EC50 [4] [nM]
1 | CC(CC(=O)O)CN1CCc2nc(-c3ccc(OCc4ccccc4C(F)(F)F)cc3F)ncc2C1 (centres unmarked) [Compound 260, 4-[2-[2-fluoro-4-[[2-(trifluoromethyl)phenyl]methoxy]phenyl]-7,8-dihydro-5H-pyrido[4,3-d]pyrimidin-6-yl]-3-methyl-butanoic acid 2,2,2-trifluoroacetic acid salt] | 10 to 100 | > 1000 | > 1000 | > 1000
2 | O=C(O)CCN1CCc2nc(-c3ccc(OCc4cccc(Cl)c4)cc3)c(F)cc2C1 [Compound 189, 3-(2-(4-((3-chlorobenzyl)oxy)phenyl)-3-fluoro-7,8-dihydro-1,6-naphthyridin-6(5H)-yl)propanoic acid] | < 10 | > 1000 | > 1000 | > 1000
3 | CCc1cccc(Cl)c1COc1ncc2c(n1)CCN(CCC(=O)O)C2 [Compound 96, 3-(2-((2-chloro-6-ethylbenzyl)oxy)-7,8-dihydropyrido[4,3-d]pyrimidin-6(5H)-yl)propanoic acid] | 1000 to 10000 | > 1000 | > 1000 | > 1000
4 | Cc1ccc(C(F)(F)F)c(COc2ccc(-c3ncc4c(n3)CCN(CC(C)CC(=O)O)C4)cc2)c1 (centres unmarked) [Compound 275, 3-methyl-4-[2-[4-[[5-methyl-2-(trifluoromethyl)phenyl]methoxy]phenyl]-7,8-dihydro-5H-pyrido[4,3-d]pyrimidin-6-yl]butanoic acid 2,2,2-trifluoroacetic acid salt] | 10 to 100 | > 1000 | > 1000 | > 1000
5 | CCOc1ccc(C#Cc2ccc3c(n2)CCN(C2CC(C(=O)O)C2)C3)cc1 (centres unmarked) [Compound 122, 3-(2-((4-ethoxyphenyl)ethynyl)-7,8-dihydro-1,6-naphthyridin-6(5H)-yl)cyclobutanecarboxylic acid] | 1000 to 10000 | > 1000 | > 1000 | > 1000
6 | CC(CC(=O)O)CN1CCc2nc(-c3ccc(OCc4ccccc4C(F)(F)F)cc3)ncc2C1 (centres unmarked) [Compound 254, 3-methyl-4-[2-[4-[[2-(trifluoromethyl)phenyl]methoxy]phenyl]-7,8-dihydro-5H-pyrido[4,3-d]pyrimidin-6-yl]butanoic acid 2,2,2-trifluoroacetic acid salt] | < 10 | > 1000 | > 1000 | > 1000
7 | Cc1cc(-c2cc3c(cn2)CN(CCC(=O)O)CC3)ccc1OCc1ccc(C(F)(F)F)cc1 [Compound 173, 3-(6-((4(4-trifluoromethylbenzyl)oxy)-3-methylphenyl)-3,4-dihydro-2,7-naphthyridin-2(1H)-yl)propanoic acid] | < 10 | > 1000 | > 1000 | > 1000
8 | O=C(O)CCN1CCc2nc(-c3ccc(OCc4ccc(C(F)F)cc4)cc3)ccc2C1 [Compound 166, 3-(2-(4-((4-difluoromethylbenzyl)oxy)phenyl)-7,8-dihydro-1,6-naphthyridin-6(5H)-yl)propanoic acid] | < 10 | > 1000 | > 1000 | > 1000
9 | Cc1cc(OC(F)(F)F)ccc1COc1ccc(-c2ccc3c(n2)CCN(CCC(=O)O)C3)cc1 [Compound 161, 3-(2-(4-((2-methyl-4-(trifluoromethoxy)benzyl)oxy)phenyl)-7,8-dihydro-1,6-naphthyridin-6(5H)-yl)propanoic acid] | < 10 | > 1000 | > 1000 | > 1000
10 | O=C(O)CCCN1CCc2nc(Cc3c(F)cccc3F)ncc2C1 [Compound 51, 4-(2-(2,6-difluorobenzyl)-7,8-dihydropyrido[4,3-d]pyrimidin-6(5H)-yl)butanoic acid] | 1000 to 10000 | > 1000 | > 1000 | > 1000
11 | CC(CC(=O)O)CN1CCc2nc(-c3ccc(OCc4ccc(C(F)(F)F)cc4)cc3)ncc2C1 (centres unmarked) [Compound 233, 3-methyl-4-(2-(4-((4-(trifluoromethyl)benzyl)oxy)phenyl)-7,8-dihydropyrido[4,3-d]pyrimidin-6(5H)-yl)butanoic acid] | < 10 | > 1000 | < 1000 | < 1000
12 | Cc1cc(-c2ccc3c(n2)CCN(CCC(=O)O)C3)ccc1OCc1ccc(Cl)cc1 [Compound 169, 3-(2-(4-((4-chlorobenzyl)oxy)-3-methylphenyl)-7,8-dihydro-1,6-naphthyridin-6(5H)-yl)propanoic acid] | < 10 | > 1000 | > 1000 | > 1000
13 | CC(CC(=O)O)CN1CCc2nc(-c3ccc(OCc4ccc(Cl)cc4)cc3)ncc2C1 (centres unmarked) [Compound 259, 4-(2-(4-((4-chlorobenzyl)oxy)phenyl)-7,8-dihydropyrido[4,3-d]pyrimidin-6(5H)-yl)-3-methylbutanoic acid] | 10 to 100 | > 1000 | > 1000 | > 1000
14 | CCOc1ccc(C#Cc2ncc3c(n2)CCN(C2CC(C(=O)O)C2)C3)cc1 (centres unmarked) [Compound 56, 3-(2-((4-ethoxyphenyl)ethynyl)-7,8-dihydropyrido[4,3-d]pyrimidin-6(5H)-yl)cyclobutanecarboxylic acid] | 1000 to 10000 | > 1000 | > 1000 | > 1000
15 | CSc1ccc(COc2ccc(-c3ncc4c(n3)CCN(CC(C)CC(=O)O)C4)cc2)cc1 (centres unmarked) [Compound 257, 3-methyl-4-[2-[4-[(4-methylsulfanylphenyl)methoxy]phenyl]-7,8-dihydro-5H-pyrido[4,3-d]pyrimidin-6-yl]butanoic acid 2,2,2-trifluoroacetic acid salt] | 10 to 100 | > 1000 | > 1000 | > 1000
16 | O=C(O)CCN1CCc2nc(-c3ccc(OCc4ccc(Cl)cc4)cc3)ncc2C1 [Compound 74, 3-(2-(4-((4-chlorobenzyl)oxy)phenyl)-7,8-dihydropyrido[4,3-d]pyrimidin-6(5H)-yl)propanoic acid] | < 10 | > 1000 | > 1000 | > 1000
17 | CC(CC(=O)O)CN1CCc2nc(-c3ccc(OCc4ccccc4Cl)cc3)ncc2C1 (centres unmarked) [Compound 229, 4-[2-[4-[(2-chlorophenyl)methoxy]phenyl]-7,8-dihydro-5H-pyrido[4,3-d]pyrimidin-6-yl]-3-methyl-butanoic acid 2,2,2-trifluoroacetic acid salt] | < 10 | > 1000 | < 1000 | > 1000
18 | CC(CN1CCc2nc(-c3ccc(OCc4ccc(Cl)c(Cl)c4)cc3)ncc2C1)C(=O)O (centres unmarked) [Compound 14, 3-(2-(4-((3,4-dichlorobenzyl)oxy)phenyl)-7,8-dihydropyrido[4,3-d]pyrimidin-6(5H)-yl)-2-methylpropanoic acid] | < 10 | > 1000 | > 1000 | > 1000
19 | CC(CN1CCc2nc(-c3ccc(OCc4cc(Cl)cc(Cl)c4)cc3)ncc2C1)C(=O)O (single isomer, unassigned) [Compound 20, 3-(2-(4-((3,5-dichlorobenzyl)oxy)phenyl)-7,8-dihydropyrido[4,3-d]pyrimidin-6(5H)-yl)-2-methylpropanoic acid] | 10 to 100 | > 1000 | > 1000 | > 1000
20 | CC(CC(=O)O)CN1CCc2nc(-c3ccc(C(F)(F)Cc4ccc(Cl)cc4F)cc3)ncc2C1 (centres unmarked) [Compound 277] | 10 to 100 | > 1000 | > 1000 | > 1000
21 | Cc1ccccc1C#Cc1ccc2c(n1)CCN(C1CC(C(=O)O)C1)C2 (centres unmarked) [Compound 121, 3-(2-(o-tolylethynyl)-7,8-dihydro-1,6-naphthyridin-6(5H)-yl)cyclobutanecarboxylic acid] | 1000 to 10000 | > 1000 | > 1000 | > 1000
22 | Cc1ccccc1COc1ccc(-c2ncc3c(n2)CCN(C[C@@H](C)CC(=O)O)C3)cc1C [Compound 249] | < 10 | > 1000 | > 1000 | > 1000
23 | O=C(O)CCN1CCc2nc(-c3ccc(OCc4ccc(Cl)cc4)cc3)cnc2C1 [Compound 178, 3-(2-(4-((4-chlorobenzyl)oxy)phenyl)-7,8-dihydropyrido[3,4-b]pyrazin-6(5H)-yl)propanoic acid] | < 10 | > 1000 | > 1000 | > 1000
24 | CC(C(=O)O)N1CCc2nc(-c3ccc(OCc4cc(F)cc(F)c4)cc3)ncc2C1 (centres unmarked) [Compound 299, 2-(2-(4-((3,5-difluorobenzyl)oxy)phenyl)-7,8-dihydropyrido[4,3-d]pyrimidin-6(5H)-yl)propanoic acid] | 100 to 1000 |  | > 1000 | > 1000
